Measurements as given in US20040235809A1, “Epoxy steroidal aldosterone antagonist and beta-adremergic antagonist combination therepy for treatment of congestive heart failure” (priority 2000, published 2004).

Legend:
[1] = test system: rats with coronary artery ligation; assay: Assay D: myocardial infarction rat model; format: in vivo; conditions: combination of beta-adrenergic antagonist and eplerenone versus either component alone, after six weeks
Text: Assay “D” Myocardial Infarction Rat Model: male rats are anesthetized and the heart is exteriorized following a left sided thoracotomy. The left anterior descending coronary artery is ligated with a suture. The thorax is closed and the animal recovers. Sham animals have the suture passed through without ligation. One week prior to the surgery, animals to undergo infraction are divided into separate groups and drug treatment is begun. […] After six weeks, systolic and diastolic blood pressure, left ventricular end diastolic pressure, left ventricular dP/dt, and heart rate are evaluated. The hearts are removed, weight, measured and fixed in formalin. Collagen content of heart sections are evaluated using computerized image analysis of picrosirius stained sections.

hypertensive rats = assay: Assay C: hypertensive rat model (renal artery clip); format: in vivo; conditions: combination of beta-adrenergic antagonist and eplerenone versus either component alone, after 12 to 24 weeks
Text: Assay “C”: Hypertensive Rat Model Male rats are made hypertensive by placing a silver clip with an aperture of 240 microns on the left renal artery, leaving the contralateral kidney untouched. Sham controls undergo the same procedure but without attachment of the clip. One week prior to the surgery, animals to be made hypertensive are divided into separate groups and drug treatment is begun. […] After 12 to 24 weeks, systolic and diastolic blood pressure, left ventricular end diastolic pressure, left ventricular dP/dt, and heart rate are evaluated. The hearts are removed, weight, measured and fixed in formalin. Collagen content of heart sections are evaluated using computerized image analysis of picrosirius stained sections.

[2] = test system: patients with mild to moderate hypertension; assay: Example 19 clinical study: eplerenone versus placebo co-administered with a calcium-channel blocker; format: in vivo, human
Text: This multicenter, randomized, double-blind, placebo-controlled, placebo run-in, parallel group trial involving a minimum of 120 randomized patients with hypertension (seated diastolic blood pressure [seDBP]≧95 mmHg and <110 mmHg and seated systolic BP [seSBP]<180 mmHg while taking a CCB) will consist of a one- to two-week pretreatment screening period followed by a two- to four-week single-blind placebo run-in period and an 8-week double-blind treatment period. Eligible patients will be patients currently receiving a CCB as part of their antihypertensive medication. […] The dose will not be changed for patients with adequate BP control. […] If the dose has been increased at Week 2, the patient will be reassessed at Week 6. […] If BP is uncontrolled at Week 6 and the dose has been increased at Week 2 or Week 4, the patient must be withdrawn from the study. If symptomatic hypotension (i.e., lightheadedness, dizziness, or syncope associated with low BP) occurs at any time during the study, or if DBP is ≧110 mmHg or SBP is ≧180 mmHg at any time during the trial, the patient must be withdrawn. Patients will receive study medication for a total of 8 weeks.
Patients will return to the clinic for evaluations at Weeks 0 (baseline), 2, 4, 6, 8, and 9. Heart rate, BP, adverse events and concomitant medication will be assessed at each visit. Hematology and biochemistry evaluations and urinalysis for safety will be at Weeks 0, 8, and 9. Serum potassium levels will be determined at Weeks 0 (baseline), 2, 4, 6, 8, and 9. Plasma renin, serum aldosterone, and plasma cortisol will be determined at Weeks 0 and 8. A 12-lead electrocardiogram and physical examination will be done at screening and at Week 9.
The study will consist of a one- to two-week pretreatment screening period followed by a two- to four-week single-blind placebo run-in treatment period, prior to randomization to an eight-week double-blind treatment period.
Eligible patients will be either currently receiving a CCB alone, or receiving a CCB as part of their antihypertensive medication. […] The dose will not be changed for patients with adequate BP control. […] If the dose has been increased at Week 2, the patient will be reassessed at Week-6. The dose of study medication will not be changed for patients with adequate BP control. […] If BP is uncontrolled at Week 6 and the dose has been increased at Week 2 or Week 4, the patient must be withdrawn from the study. The dose of study medication will not be changed for patients with adequate BP control. If symptomatic hypotension (i.e., lightheadedness, dizziness, or syncope associated with low BP) occurs at any time during the study, or if DBP is ≧110 mmHg or SBP is ≧180 mmHg at any time during the study, the patient must be withdrawn. Patients will receive study medication for a total of eight weeks.
Patients will return to the clinic for evaluations at Weeks 0, 2, 4, 6, 8, and 9. Heart rate, BP, adverse events and concomitant medication will be assessed at each visit. Hematology and biochemistry evaluations and urinalysis for safety will be at Weeks 0, 8, and 9. Serum potassium levels will be determined at Weeks 0, 2, 4, 6, 8, and 9. Plasma renin, serum aldosterone, and plasma cortisol will be determined at Weeks 0 and 8. […]
BP evaluations will be analyzed at each visit using two-way analysis of covariance (ANCOVA) with the baseline measurement as the covariate and treatment and center as factors. […]

animal models = conditions: cited from earlier work
[3] = eplerenone plus CCB compared to CCB and placebo

Row | Compound | cardiac performance [1] | cardiac performance (hypertensive rats) | systolic blood pressure ([2]; eplerenone 50-100 mg plus fixed dose CCB versus CCB plus placebo, eight weeks) | serious adverse events ([2]; eplerenone added to CCB therapy) | active renin levels [2, 3] | aldosterone levels [2, 3] | change in mean diastolic blood pressure ([2]; eplerenone plus CCB versus CCB plus placebo, eight weeks) | myocardial fibrosis (animal models; D. Klug et al 1993) | fibrosis (animal models; irrespective of left ventricular hypertrophy and hypertension, C. G. Brilla et al 1993)
1 | COC(=O)[C@@H]1CC2=CC(=O)CC[C@]2(C)[C@@]23O[C@@H]2C[C@@]2(C)[C@@H](CC[C@@]24CCC(=O)O4)[C@H]13 [eplerenone, Pregn-4-ene-7,21-dicarboxylic acid, 9,11-epoxy-17-hydroxy-3-oxo-,γ-lactone, methyl ester, (7α,11α,17β)-] | improvements in cardiac performance | improvements in cardiac performance | significant reduction | no serious adverse events | greater increase | greater increase | greater for the dual therapy group, compared to monotherapy, but this difference did not reach statistical significance | – | –
2 | CC(=O)S[C@@H]1CC2=CC(=O)CC[C@]2(C)[C@H]2CC[C@@]3(C)[C@@H](CC[C@@]34CCC(=O)O4)[C@H]12 [spironolactone] | – | – | – | – | – | – | – | prevents myocardial fibrosis | prevent fibrosis
